In patent US9540323B2 (BRISTOL-MYERS SQUIBB COMPANY, priority 2012, dated 2017):
Where two headings read alike, the source gives them in different places.

Key:
[1] = system: human platelet rich plasma (PRP); assay: ADP induced platelet aggregation assay; conditions: Homo sapiens, Platelet, 5 min, read-out: PA IC50 (μM) @ 10 μM ADP, human PRP, 10 μM ADP, AUC at 5 minute
Experimental: The ability of P2Y1 antagonists covered in the present invention to inhibit platelet aggregation induced by 10 μM ADP was tested using human platelet rich plasma (PRP) as described in Platelet Protocols: Research and Clinical Laboratory Procedures (White, M. M. et al., Academic Press (1999)). Human blood was collected in 30 μM (final concentration in blood) argatroban (GSK) as the anticoagulant at a ratio of 1 mL per 9 mL of blood. The PRP was isolated by centrifugation at 170 g for 12 minutes. The platelet poor plasma (PPP) was used as the blank for optical aggregometry. Compounds of the present invention in DMSO solution was preincubated with 250 μL PRP at 37° C. for 1 minute with stirring speed of 1000 rpm. Aggregation was initiated by addition of 2.5 μL of 1 mM ADP (Chrono-log, Havertown, Pa.) for a final ADP concentration of 10 μM. Platelet aggregation was monitored using Optical Aggregometer (Chrono-log, Havertown, Pa.) and the area under the curve (AUC) at 5 minute was measured. IC50 was calculated using vehicle control as 0% inhibition.

[2] = target: cloned human P2Y1 receptors (Homo sapiens (Human), UniProt P47900); assay: Binding Assay B - Scintillation Proximity Assay (SPA) for P2Y1 binding, [33P] 2MeS-ADP; conditions: read-out: P2Y1 Ki (nM) using binding assay B
Experimental: Binding Assay B—Scintillation Proximity Assay (SPA) for P2Y1 Binding
A SPA membrane binding assay was used to identify inhibitors of [^33P] […] Reactions were allowed to proceed to completion at room temperature for 1 hour followed by centrifugation of the plate for 5 min. About 40 μL of the aqueous solution was aspirated. Plates were sealed and the [^33P]

[3] = SPA, 0.3 nM [33P] 2MeS-ADP, Cheng-Prusoff

Sequence of cloned human P2Y1 receptors (P47900 whole entry): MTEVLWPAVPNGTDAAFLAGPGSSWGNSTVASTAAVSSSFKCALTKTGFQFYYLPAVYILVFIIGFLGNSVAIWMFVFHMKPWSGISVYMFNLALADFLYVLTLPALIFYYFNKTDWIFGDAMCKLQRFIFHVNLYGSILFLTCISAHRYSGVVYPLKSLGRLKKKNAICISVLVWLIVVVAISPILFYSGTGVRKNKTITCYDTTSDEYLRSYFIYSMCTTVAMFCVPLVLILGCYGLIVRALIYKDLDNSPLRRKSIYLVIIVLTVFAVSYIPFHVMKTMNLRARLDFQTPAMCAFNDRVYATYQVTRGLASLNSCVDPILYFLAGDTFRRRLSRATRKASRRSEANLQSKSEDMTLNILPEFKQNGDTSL

| SMILES | IC50 [1] [µM] | Ki [2, 3] [nM] | Ki [2] [nM] |
| --- | --- | --- | --- |
| CC1(C)CN(c2ccccc2NC(=O)Nc2nc3ccc(F)nc3s2)c2c(O)cc(F)c(-c3ccc(F)cc3)c21 [Example 233, 1-(2-(5-Fluoro-4-(4-fluorophenyl)-7-hydroxy-3,3-dimethylindolin-1-yl)phenyl)-3-(5-fluorothiazolo[5,4-b]pyridin-2-yl)urea] | 0.31 | 9.4 |  |
| CC1(C)CN(c2ccccc2NC(=O)Nc2nc3ccc(Br)cc3s2)c2c(O)ccc(Br)c21 [Example 42, 1-(2-(4-Bromo-7-hydroxy-3,3-dimethylindolin-1-yl)phenyl)-3-(6-bromobenzo[d]thiazol-2-yl)urea] | 0.45 | 27.7 |  |
| CC1(C)CN(c2ccccc2NC(=O)Nc2nc3ccc(Cl)nc3s2)c2c(O)cc(F)c(-c3noc(C(F)(F)F)n3)c21 [Example 257, 1-(5-Chlorothiazolo[5,4-b]pyridin-2-yl)-3-(2-(5-fluoro-7-hydroxy-3,3-dimethyl-4-(5-(trifluoromethyl)-1,2,4-oxadiazol-3-yl)indolin-1-yl)phenyl)urea] | 0.29 | 86.2 |  |
| CC(C)(C)c1ccc(NC(=O)Nc2ccccc2N2CC(C)(C)c3ccccc32)cc1 [Comparator 1, reference compound] | > 20 | 12.9 |  |
| COc1ccc2nc(NC(=O)Nc3ccccc3N3CC(C)(C)c4c(-c5nc6ccc(Cl)cc6o5)ccc(O)c43)sc2n1 [Example 110, 1-(2-(4-(6-Chlorobenzo[d]oxazol-2-yl)-7-hydroxy-3,3-dimethylindolin-1-yl)phenyl)-3-(5-methoxythiazolo[5,4-b]pyridin-2-yl)urea] | 0.31 | 15.4 |  |
| CC(C)(C)Sc1ccc(O)c2c1C(C)(C)CN2c1ccccc1NC(=O)Nc1ccc(OC(F)(F)F)cc1 [Example 72, 1-(2-(4-(tert-Butylthio)-7-hydroxy-3,3-dimethylindolin-1-yl)phenyl)-3-(4-(trifluoromethoxy)phenyl)urea] | 1.05 | 32.2 |  |
| CC1(C)CN(c2ccccc2NC(=O)Nc2csc(Cl)n2)c2c(O)ccc(-c3ccc(F)cc3)c21 [Example 198, 1-(2-Chlorothiazol-4-yl)-3-(2-(4-(4-fluorophenyl)-7-hydroxy-3,3-dimethylindolin-1-yl)phenyl)urea] | 0.09 | 4.9 |  |
| CC1(C)CN(c2ccccc2NC(=O)Nc2ccc(OC(F)(F)F)cc2)c2c(O)ccc(-c3ccc(Cl)cc3)c21 [Example 205, 1-(2-(4-(4-Chlorophenyl)-7-hydroxy-3,3-dimethylindolin-1-yl)phenyl)-3-(4-(trifluoromethoxy)phenyl)urea] | 0.14 | 6.7 |  |
| CC(C)(C)CN1CCCC1c1ccc(NC(=O)Nc2ccccc2N2CC(C)(C)c3c(-c4ccc(F)cc4)ccc(O)c32)cc1 (centres unmarked) [Example 202, 1-(2-(4-(4-Fluorophenyl)-7-hydroxy-3,3-dimethylindolin-1-yl)phenyl)-3-(4-(1-neopentylpyrrolidin-2-yl)phenyl)urea] | 0.09 | 5.7 |  |
| CC1(C)CN(c2ccccc2NC(=O)Nc2ccc(OC(F)(F)F)cc2)c2c(O)cc(F)c(-c3ccc(Cl)c(F)c3)c21 [Example 234, 1-(2-(4-(4-Chloro-3-fluorophenyl)-5-fluoro-7-hydroxy-3,3-dimethylindolin-1-yl)phenyl)-3-(4-(trifluoromethoxy)phenyl)urea] | 0.29 | 40.8 |  |
| CC1(C)CN(c2ccccc2NC(=O)Nc2ccc(OC(F)(F)F)cc2)c2c(O)cc(F)c(-c3ccnc(F)c3)c21 [Example 190, 1-(2-(5-Fluoro-4-(2-fluoropyridin-4-yl)-7-hydroxy-3,3-dimethylindolin-1-yl)phenyl)-3-(4-(trifluoromethoxy)phenyl)urea] | 0.48 | 10.6 |  |
| CC(C)Cc1nc(-c2c(F)cc(O)c3c2C(C)(C)CN3c2ccccc2NC(=O)Nc2ccc(OC(F)(F)F)cc2)co1 [Example 260, 1-(2-(5-Fluoro-7-hydroxy-4-(2-isobutyloxazol-4-yl)-3,3-dimethylindolin-1-yl)phenyl)-3-(4-(trifluoromethoxy)phenyl)urea] | 0.4 | 18.8 |  |
| CC1(C)CN(c2ccccc2NC(=O)Nc2csc(Cl)n2)c2c(O)ccc(Br)c21 [Example 6, 1-(2-(4-Bromo-7-hydroxy-3,3-dimethylindolin-1-yl)phenyl)-3-(2-chlorothiazol-4-yl)urea] | 0.31 | 24.4 |  |
| CCC1(CC)CN(c2ccccc2NC(=O)Nc2ccc(OC(F)(F)F)cc2)c2c(O)ccc(C)c21 [Example 71, 1-(2-(3,3-Diethyl-7-hydroxy-4-methylindolin-1-yl)phenyl)-3-(4-(trifluoromethoxy)phenyl)urea] | 0.5 | 6.8 |  |
| CC1(C)CN(c2ccccc2NC(=O)Nc2ccc(OC(F)(F)F)cc2)c2c(O)cc(F)c(-c3ncc(F)cn3)c21 [Example 164, 1-(2-(5-Fluoro-4-(5-fluoropyrimidin-2-yl)-7-hydroxy-3,3-dimethylindolin-1-yl)phenyl)-3-(4-(trifluoromethoxy)phenyl)urea] | 0.95 | 10.8 |  |
| CC(C)(C)c1nc(-c2c(F)cc(O)c3c2C(C)(C)CN3c2ccccc2NC(=O)Nc2ccc(OC(F)(F)F)cc2)no1 [Example 278, 1-(2-(4-(5-(tert-Butyl)-1,2,4-oxadiazol-3-yl)-5-fluoro-7-hydroxy-3,3-dimethylindolin-1-yl)phenyl)-3-(4-(trifluoromethoxy)phenyl)urea] | 0.21 |  | 8.1 |
| COc1ccc2nc(-c3ccc(O)c4c3C(C)(C)CN4c3ccccc3NC(=O)Nc3ccc(OC(F)(F)F)cc3)oc2c1 [Example 94, 1-(2-(7-Hydroxy-4-(6-methoxybenzo[d]oxazol-2-yl)-3,3-dimethylindolin-1-yl)phenyl)-3-(4-(trifluoromethoxy)phenyl)urea] | 0.48 | 39.5 |  |
| CC1(C)CN(c2ccccc2NC(=O)Nc2ccc(OC(F)(F)F)cc2)c2c(O)cc(F)c(-c3nc4cc(F)ccc4s3)c21 [Example 151, 1-(2-(5-Fluoro-4-(5-fluorobenzo[d]thiazol-2-yl)-7-hydroxy-3,3-dimethylindolin-1-yl)phenyl)-3-(4-(trifluoromethoxy)phenyl)urea] | 0.48 | 24.1 |  |
| CC1(C)CN(c2ccccc2NC(=O)Nc2ccc(OC(F)(F)F)cc2)c2c(O)c(F)cc(Cl)c21 [Example 65, 1-(2-(4-Chloro-6-fluoro-7-hydroxy-3,3-dimethylindolin-1-yl)phenyl)-3-(4-(trifluoromethoxy)phenyl)urea] | 0.83 | 14.1 |  |
| CC1(C)CN(c2ccccc2NC(=O)Nc2ccc(OC(F)(F)F)cc2)c2c(O)ccc(C3=NC(C(C)(C)C)CO3)c21 (centres unmarked) [Example 104, 1-(2-(4-(4-tert-Butyl-4,5-dihydrooxazol-2-yl)-7-hydroxy-3,3-dimethylindolin-1-yl)phenyl)-3-(4-(trifluoromethoxy)phenyl)urea] | 0.46 | 9.1 |  |
| CC1(C)CN(c2ccccc2NC(=O)Nc2nc3ccc(F)cc3s2)c2c(O)ccc(-c3nc4ccc(Cl)cc4o3)c21 [Example 134, 1-(2-(4-(6-Chlorobenzo[d]oxazol-2-yl)-7-hydroxy-3,3-dimethylindolin-1-yl)phenyl)-3-(6-fluorobenzo[d]thiazol-2-yl)urea] | 0.19 | 73.8 |  |
| Cc1cc(-c2c(F)cc(O)c3c2C(C)(C)CN3c2ccccc2NC(=O)Nc2ccc(OC(F)(F)F)cc2)ccn1 [Example 191, 1-(2-(5-Fluoro-7-hydroxy-3,3-dimethyl-4-(2-methylpyridin-4-yl)indolin-1-yl)phenyl)-3-(4-(trifluoromethoxy)phenyl)urea] | 0.19 | 12.3 |  |
| CCC1(CC)CN(c2ccccc2NC(=O)Nc2ccc(C(C)(C)C)cc2)c2c1ccc(F)c2O [Example 38, 1-(4-tert-Butylphenyl)-3-(2-(3,3-diethyl-6-fluoro-7-hydroxyindolin-1-yl)phenyl)urea] | 0.43 | 14.8 |  |
| CC1(C)CN(c2ccccc2NC(=O)Nc2ccc(OC(F)(F)F)cc2)c2c(O)cc(F)c(-c3noc(C(F)(F)F)n3)c21 [Example 276, 1-(2-(5-Fluoro-7-hydroxy-3,3-dimethyl-4-(5-(trifluoromethyl)-1,2,4-oxadiazol-3-yl)indolin-1-yl)phenyl)-3-(4-(trifluoromethoxy)phenyl)urea] | 0.64 | 48.7 |  |
| CC(C)n1nc(-c2c(F)cc(O)c3c2C(C)(C)CN3c2ccccc2NC(=O)Nc2csc(Cl)n2)cc1C(F)(F)F [Example 273, 1-(2-Chlorothiazol-4-yl)-3-(2-(5-fluoro-7-hydroxy-4-(1-isopropyl-5-(trifluoromethyl)-1H-pyrazol-3-yl)-3,3-dimethylindolin-1-yl)phenyl)urea] | 0.05 | 9.4 |  |
| CC1(C)CN(c2ccccc2NC(=O)Nc2ccc(OC(F)(F)F)cc2)c2c(O)ccc(-c3nc4ccc(F)cc4o3)c21 [Example 92, 1-(2-(4-(6-Fluorobenzo[d]oxazol-2-yl)-7-hydroxy-3,3-dimethylindolin-1-yl)phenyl)-3-(4-(trifluoromethoxy)phenyl)urea] | 0.2 | 36.6 |  |
| CC1(C)CN(c2ccccc2NC(=O)Nc2nc3c(s2)CN(CC2CC2)CC3)c2c(O)ccc(C(F)(F)F)c21 [Example 23, 1-(5-(Cyclopropylmethyl)-4,5,6,7-tetrahydrothiazolo[5,4-c]pyridin-2-yl)-3-(2-(7-hydroxy-3,3-dimethyl-4-(trifluoromethyl)indolin-1-yl)phenyl)urea] | 1.01 | 10.4 |  |
| CCC1(CC)CN(c2ccccc2NC(=O)Nc2ccc(C3CCN(CC(C)C)CC3)cc2)c2c(O)ccc(C#N)c21 [Example 46, 1-(2-(4-Cyano-3,3-diethyl-7-hydroxyindolin-1-yl)phenyl)-3-(4-(1-isobutylpiperidin-4-yl)phenyl)urea] | 1 | 9.5 |  |
